In series [1] the test system is Strain C, mutation L100I in HIV reverse transcriptase. Briefly: Antiviral spectrum cellular assay, strain C. The class given is cell-based. Conditions: Human immunodeficiency virus 1, read-out: pEC50 against strain C (converted). On the procedure:
(§1) Because of the increasing emergence of drug resistant HIV strains, the present compounds were tested for their potency against clinically isolated HIV strains harboring several mutations. These mutations are associated with resistance to reverse transcriptase inhibitors and result in viruses that show various degrees of phenotypic cross-resistance to the currently commercially available drugs such as for instance AZT and delavirdine.
(§2) The antiviral activity of the compound of the present invention is evaluated in the presence of wild type HIV and HIV mutants bearing mutations at the reverse transcriptase gene. The activity of the compounds is evaluated using a cellular assay and the residual activity is expressed in pEC50 values. The columns IIIB and A-G in the table list the pEC50 values against various strains IIIB, A-G.
Strain C contains mutation L100I in HIV reverse transcriptase, […]

Series [2] concerns Strain IIIB, wild type HIV-LAI strain. The series is described as follows: Antiviral spectrum cellular assay, strain IIIB. The format is cell-based. Conditions: Human immunodeficiency virus 1, IIIB, read-out: pEC50 against strain IIIB (converted). The procedure:
as §1, §2
Strain IIIB is wild type HIV-LAI strain;

The subject of series [3] is Strain F, mutations K101E and K103N in HIV reverse transcriptase. The series is described as follows: Antiviral spectrum cellular assay, strain F. The format is cell-based. On the procedure: as §1, §2
Strain F contains mutations K101E and K103N in HIV reverse transcriptase.

Series [4] has as its system Strain E, mutations L100I and K103N in HIV reverse transcriptase. Briefly: Antiviral spectrum cellular assay, strain E. The format is cell-based. On the procedure:
as §1, §2
Strain E contains mutations L100I and K103N in HIV reverse transcriptase, […]

In series [5] the test system is Strain D, mutation Y188L and S162K in HIV reverse transcriptase. The series is described as follows: Antiviral spectrum cellular assay, strain D. The settings on record: Human immunodeficiency virus 1, read-out: pEC50 against strain D (converted). The class given is cell-based. The procedure:
as §1, §2
Strain D contains mutation Y188L and S162K in HIV reverse transcriptase, […]

For series [6], the system named is Strain A, mutation Y181C in HIV reverse transcriptase. Briefly: Antiviral spectrum cellular assay, strain A. The settings on record: Human immunodeficiency virus 1, read-out: pEC50 against strain A (converted). The class given is cell-based. The procedure: as §1, §2
Strain A contains mutation Y181C in HIV reverse transcriptase, […]

The test system of series [7] is Strain B, mutation K103N in HIV reverse transcriptase. Briefly: Antiviral spectrum cellular assay, strain B. The format is cell-based. Conditions: Human immunodeficiency virus 1, read-out: pEC50 against strain B (converted). On the procedure:
as §1, §2
Strain B contains mutation K103N in HIV reverse transcriptase, […]

For series [8], the system named is Strain G, mutations L100I, K103N, E138G, V179I, Y181C, L214F, V276V/I and A327A/V in HIV reverse transcriptase. Briefly: Antiviral spectrum cellular assay, strain G. The format is cell-based. Conditions: for EC50: Human immunodeficiency virus 1, read-out: pEC50 against strain G (converted). On the procedure:
as §1, §2

Where [9] appears, read: compared to reference compound A.

Take `Cc1cc(C#N)cc(C)c1Oc1nc(Nc2ccc(C#N)cc2)nc(NO)c1Br` [Compound 1, 4-[[6-hydroxylamino-5-bromo-2-[(4-cyanophenyl)amino]-4-pyrimidinyl]oxy]-3,5-dimethylbenzonitrile]: the melting point is 211 °C (dec.). Further, the EC50 in [1] was 1.2 nM. Besides, the EC50 in series [2] was 3.98 nM. Moreover, the EC50 in series [3] (Human immunodeficiency virus 1, read-out: pEC50 against strain F (converted)) is 3.63 nM. For the same molecule, the “activity against double mutant strain F compared to reference compound A” value in series [3] (setting [9]) was “improved activity”. Further, the EC50 in series [4] (Human immunodeficiency virus 1, read-out: pEC50 against strain E (converted)) is 1.86 nM. Moreover, the “activity against double mutant strain E compared to reference compound A” value in series [4] (setting [9]) is listed as “improved activity”. The EC50 in series [5] is 3.02 nM. In series [6], the EC50 was 12 nM. Besides, the EC50 in [7] was 2.34 nM. For the same molecule, the EC50 in series [8] was 479 nM. For the same molecule, the “activity against multiple mutated strain G compared to reference compound A” value in [8] (setting [9]) was “improved activity”.
For `Cc1cc(C#N)cc(C)c1Oc1nc(Nc2ccc(C#N)cc2)nc(N)c1Br` [Compound A, reference compound], the EC50 in [2] is 2.82 nM; in series [6] it was 10 nM; in series [8] it was 5750 nM.

(Values after patent US8119801B2, “HIV inhibiting 2-(4-cyanophenyl)-6-hydroxylaminopyrimidines” (priority 2005, dated 2012).)
